Test results published in patent publication US5360613A, “Method of reducing blood levels of total cholesterol and low-density lipoprotein cholesterol” (Iowa State University Research Foundation, Inc., priority 1993, dated 1994).

What was measured:
[1] = system: plasma cholesterol and triglycerides; test: Hamster feeding study, plasma cholesterol and triglycerides (Example I, Table A); assay type: in vivo, hamsters; details: for % Change HDL cholesterol / % Change HDL/LDL / % Change LDL cholesterol / % Change Total cholesterol / % Change Triglycerides: HMB vs control
Procedure: A preliminary experiment was carried out using hamsters as the test animal and Na-HMB as the therapeutic agent. The experimental details and the results obtained are described as follows.
Pregnant Female hamsters were housed and allowed to give birth. At three weeks of age, litters were subdivided into pairs within a sex. The pairs of hamsters were then assigned randomly a purified diet based on casein and cornstarch with either contained 0.1% NaCl (control) or one containing 0.1% Na-HMB (HMB). They were maintained on this diet for 6 weeks at which time they were killed by decapitation and blood collected into EDTA containing tubes. Blood was separated by centrifugation and plasma collected. The unfrozen plasma was treated with an LDL precipitating agent, centrifuged and the supernatant collected. The whole plasma and supernatant were assayed for cholesterol by an enzymatic method. Plasma cholesterol estimated total cholesterol while the supernatant represented HDL cholesterol. LDL cholesterol was estimated by the formula: LDL-Cholesterol=(Total cholesterol)-(HDL cholesterol)-(triglycerides X 0.2). Total triglycerides in plasma were estimated by an enzymatic assay.

blood cholesterol = test: Controlled double-blind human study, blood cholesterol (Example IV, Table D); assay type: in vivo, humans
Procedure: (§1) In view of the findings of the foregoing examples, a human study was carried out.
(§2) In a controlled double-blind study, the effects of feeding HMB on loss of urinary nitrogen, blood cholesterol and immune function in normal humans were tested. This study also measured blood components that reflect liver, kidney and tissue metabolism. In addition further measurements of nitrogen metabolism and immune function were implemented. All measurements were made in a controlled dietary situation and under blinded conditions. Normal male subjects were used who had been screened for normalcy. Ca-HMB was administered in 250 mg capsules. The subjects were instructed to take the capsules in 4 equal doses daily (with meals and at bed time). The subject ate all their meals under controlled conditions. Normal diets were used, and the amount of the diets was controlled to maintain equal and substantially constant nitrogen intake. The subjects had blood drawn before the morning meal or before they took the morning HMB dose. Each subject was studied twice: once with a placebo and once with HMB.

[2] = Human dose-response study, body weight and body fat (Example V, Table E); assay type: in vivo, humans; details: study combined with Example IV
Procedure: (§3) Higher dose levels than in Example IV of Ca-HMB were tested in humans. The objective was to obtain an indication of whether higher doses could be safely administered, and also whether higher doses might provide a greater reduction in total cholesterol and LDL cholesterol.
(§4) Normal humans were used in the study. Ca-HMB was administered in 250 mg capsules, and the subjects were instructed to take the capsules in 4 equal doses daily. No control of diet was attempted except they were instructed to eat as they normally would. On alternate days the subjects had blood drawn before the morning meal and before they took the morning HMB dose. Four subjects were studied for dose level of 05., 1, 2 and 4 grams per day.
Results from all samples of each subject were subjected to linear regression and the slope and intercept used to calculate the % change in concentration after 8 days on treatment. The percentage changes were then subjected to ANOVA-regression to determine if there was a linear effect of dosage on the parameter. The dose-response effect (p<) is listed in the linear effect column of Table E.

[3] = Human dose-response study, adverse effects (Example V); assay type: in vivo, humans; details: 0.5 to 4 g per day
Procedure: as §3, §4

[4] = Controlled double-blind human study, body weight, body fat and resting metabolic rate (Example IV, Table D); assay type: in vivo, humans
Procedure: as §1, §2

[5] = females, 0.1% Na-HMB diet, 6 weeks
[6] = males, 0.1% Na-HMB diet, 6 weeks
[7] = HMB change net of placebo-group change

CC(C)(O)CC(=O)O [HMB, β-hydroxy-β-methylbutyric acid]
HDL cholesterol ([1]; females, 0.1% Na-HMB diet, 6 weeks, control 125): 132 mg %
Total cholesterol ([1]; females, 0.1% Na-HMB diet, 6 weeks, control 237): 228 mg %
Triglycerides ([1]; females, 0.1% Na-HMB diet, 6 weeks, control 240): 212 mg %
HDL/LDL ([1]; females, 0.1% Na-HMB diet, 6 weeks, control .51): .41
LDL cholesterol ([1]; females, 0.1% Na-HMB diet, 6 weeks, estimated by formula, control 64): 53 mg %
% Change HDL cholesterol [1, 5]: +5%
% Change HDL/LDL [1, 5]: -20%
% Change LDL cholesterol [1, 5]: -17%
% Change Total cholesterol [1, 5]: -4%
% Change Triglycerides [1, 5]: -11%
HDL cholesterol ([1]; hamsters): a trend to increase HDL cholesterol
LDL cholesterol ([1]; hamsters): markedly lower LDL cholesterol
ratio of LDL/HDL ([1]; hamsters): positively affected
HDL cholesterol ([1]; males, 0.1% Na-HMB diet, 6 weeks, control 111): 118 mg %
Total cholesterol ([1]; males, 0.1% Na-HMB diet, 6 weeks, control 217): 208 mg %
Triglycerides ([1]; males, 0.1% Na-HMB diet, 6 weeks, control 232): 226 mg %
HDL/LDL ([1]; males, 0.1% Na-HMB diet, 6 weeks, control .53): .38
LDL cholesterol ([1]; males, 0.1% Na-HMB diet, 6 weeks, estimated by formula, control 59): 45 mg %
% Change HDL cholesterol [1, 6]: +5%
% Change HDL/LDL [1, 6]: -28%
% Change LDL cholesterol [1, 6]: -24%
% Change Total cholesterol [1, 6]: -4%
% Change Triglycerides [1, 6]: -2%
increase of HDL cholesterol (blood cholesterol; 2 g of HMB daily for two weeks): 11%
reduction of LDL cholesterol (blood cholesterol; 2 g of HMB daily for two weeks): 10%
reduction of total cholesterol (blood cholesterol; 2 g of HMB daily for two weeks): 6%
% Net Effect HMB, HDL Cholesterol (blood cholesterol; [7]): 11%
% Net Effect HMB, LDL Cholesterol (blood cholesterol; [7]): -10%
% Net Effect HMB, LDL/HDL (blood cholesterol; [7]): -25%
% Net Effect HMB, Total Cholesterol (blood cholesterol; [7]): -6%
% Change Trt. HDL Cholesterol (blood cholesterol; control to HMB treatment): 3%
% Change Trt. LDL Cholesterol (blood cholesterol; control to HMB treatment): -8%
% Change Trt. LDL/HDL (blood cholesterol; control to HMB treatment): -12%
% Change Trt. Total Cholesterol (blood cholesterol; control to HMB treatment): -10%
decrease of ratio of LDL to HDL (blood cholesterol; in two weeks): 25%
LDL cholesterol (blood cholesterol; treated group on HMB, Ca HMB 1.0 grams/24 hours, calculated, pre-treatment control 118): 107
LDL/HDL (blood cholesterol; treated group on HMB, Ca HMB 1.0 grams/24 hours, pre-treatment control 2.38): 2.10
HDL cholesterol (blood cholesterol; treated group on HMB, Ca HMB 1.0 grams/24 hours, pre-treatment control 49.5): 50.9
Total cholesterol (blood cholesterol; treated group on HMB, Ca HMB 1.0 grams/24 hours, pre-treatment control 187): 169
effect on body fat [2]: extremely suggestive of an effect on body fat
adverse affects [3]: no adverse affects
complaint noted with several patients [3]: being hungrier than normal
% Net Effect HMB, % Body fat [4, 7]: -9%
% Net Effect HMB, Resting metabolic rate [4, 7]: 0%
% Net Effect HMB, Weight [4, 7]: 1.4%
Body weight ([4]; HMB treatment): did not change
body fat ([4]; HMB treatment): did not change
resting metabolic rate ([4]; HMB treatment): did not change
% Change Trt. % Body fat ([4]; control to HMB treatment): -12%
% Change Trt. Resting metabolic rate ([4]; control to HMB treatment): 4%
% Change Trt. Weight ([4]; control to HMB treatment): 1.4%
% Body fat (skin fold) ([4]; treated group on HMB, Ca HMB 1.0 grams/24 hours, pre-treatment control 12.5): 11.0%
resting metabolic rate ([4]; treated group on HMB, Ca HMB 1.0 grams/24 hours, pre-treatment control 74.8): 77.8 KCal/mw
Weight ([4]; treated group on HMB, Ca HMB 1.0 grams/24 hours, pre-treatment control 176): 179 lbs.
